Results as given in PMC4837341, “Drug target identification using network analysis: Taking active components in Sini decoction as an example” (Scientific Reports, 2016).

Target: T1, TNF-α (recombinant mouse TNF-α) (Mus musculus, UniProt P06804)
T1 construct: recombinant, purchased from Sigma; amine-coupled to CM5 chip
T1 sequence (P06804 80-235): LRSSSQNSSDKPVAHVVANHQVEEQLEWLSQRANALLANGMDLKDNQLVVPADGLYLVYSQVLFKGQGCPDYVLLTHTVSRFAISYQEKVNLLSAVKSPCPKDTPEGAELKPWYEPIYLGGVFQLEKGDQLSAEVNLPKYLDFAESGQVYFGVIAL
Assay: SPR (BIAcore T200, TNF-α immobilised on CM5, […] model)
Assay type: binding

Row | SMILES | Kd [µM]
1 | O=c1c(O)c(-c2ccc(O)c(O)c2)oc2cc(O)cc(O)c12 [H11, Quercetin] | 35
2 | Oc1ccc(CC2NCCc3cc(O)c(O)cc32)cc1 (centres unmarked) [S39, Higenamine] | 67
